Eight compounds from ChEMBL document CHEMBL1136839, “3,4-Disubstituted isothiazoles: novel potent inhibitors of VEGF receptors 1 and 2” (Bioorg Med Chem Lett, 2009) can be followed below.

For data set [1], the target named is T1, Vascular endothelial growth factor receptor 2 (Homo sapiens, UniProt P35968). Kind of data set: Inhibition of VEGFR2 at IC90 concentration by ATP based competition assay.
Data set [2] deals with Epidermal growth factor receptor (Homo sapiens) (UniProt P00533). Kind of data set: Inhibition of EGFR at 10 uM by HTRF assay.
For data set [3], the target named is Cyclin-dependent kinase 2 (Homo sapiens) (UniProt P24941). Kind of data set: Inhibition of CDK2 at 10 uM by HTRF assay. Background: TR-FRET usually uses a lanthanide donor and a delayed reading to cut background.
Data set [4] addresses Macrophage-stimulating protein receptor (Homo sapiens) (UniProt Q04912). As to the kind of experiment: Inhibition of Ron at 10 uM by HTRF assay.
Data set [5] has as its target Proto-oncogene tyrosine-protein kinase Src (Homo sapiens) (UniProt P12931). As to the kind of experiment: Inhibition of Src at 10 uM by HTRF assay.
In data set [6] the target is T1, Vascular endothelial growth factor receptor 2. As to the kind of experiment: Inhibition of VEGFR2 assessed as blockade of pGAT-biotin phosphorylation in presence of 2 uM ATP by HTRF assay.
For data set [7] the target is unchanged. Kind of data set: Inhibition of VEGFR2 expressed in HEK293 cells assessed as inhibition of receptor phosphorylation by ELISA. The data set is classed as cell-based. (In an ELISA, binding on a coated surface is turned into a signal by an enzyme label.)
Data set [8] has as its target Fibroblast growth factor receptor 1 (Homo sapiens) (UniProt P11362). Kind of data set: Inhibition of FGFR1 at 10 uM by HTRF assay.
Data set [9] can be described thus: Inhibition of PKA at 10 uM by HTRF assay.
Data set [10] has as its target Receptor tyrosine-protein kinase erbB-2 (Homo sapiens) (UniProt P04626). Kind of data set: Inhibition of ErbB2 at 10 uM by HTRF assay.
The target in data set [11] is Bcr/Abl fusion protein (Homo sapiens) (UniProt P00519+P11274). As to the kind of experiment: Inhibition of bcr-Abl at 10 uM by HTRF assay. It counts as protein assay.
Data set [12] has as its target T2, Aurora kinase A (Homo sapiens) (UniProt O14965).
T2 sequence (whole entry): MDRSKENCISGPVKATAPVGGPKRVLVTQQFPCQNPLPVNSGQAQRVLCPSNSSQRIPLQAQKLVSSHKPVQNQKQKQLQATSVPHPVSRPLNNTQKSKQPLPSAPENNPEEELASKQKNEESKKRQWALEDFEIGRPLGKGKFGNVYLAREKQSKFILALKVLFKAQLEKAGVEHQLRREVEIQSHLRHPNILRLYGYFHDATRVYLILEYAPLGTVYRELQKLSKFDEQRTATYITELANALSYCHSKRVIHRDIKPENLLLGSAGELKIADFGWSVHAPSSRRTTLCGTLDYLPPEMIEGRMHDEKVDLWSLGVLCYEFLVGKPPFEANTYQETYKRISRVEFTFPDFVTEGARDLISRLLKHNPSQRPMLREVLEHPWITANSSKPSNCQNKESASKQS
As to the kind of experiment: Inhibition of Aurora A at 10 uM by HTRF assay.

The target of data set [13] is Insulin receptor (Homo sapiens) (UniProt P06213). As to the kind of experiment: Inhibition of InR at 10 uM by HTRF assay.
Sequence of Insulin receptor (Homo sapiens) (P06213 28-758 limits assumed): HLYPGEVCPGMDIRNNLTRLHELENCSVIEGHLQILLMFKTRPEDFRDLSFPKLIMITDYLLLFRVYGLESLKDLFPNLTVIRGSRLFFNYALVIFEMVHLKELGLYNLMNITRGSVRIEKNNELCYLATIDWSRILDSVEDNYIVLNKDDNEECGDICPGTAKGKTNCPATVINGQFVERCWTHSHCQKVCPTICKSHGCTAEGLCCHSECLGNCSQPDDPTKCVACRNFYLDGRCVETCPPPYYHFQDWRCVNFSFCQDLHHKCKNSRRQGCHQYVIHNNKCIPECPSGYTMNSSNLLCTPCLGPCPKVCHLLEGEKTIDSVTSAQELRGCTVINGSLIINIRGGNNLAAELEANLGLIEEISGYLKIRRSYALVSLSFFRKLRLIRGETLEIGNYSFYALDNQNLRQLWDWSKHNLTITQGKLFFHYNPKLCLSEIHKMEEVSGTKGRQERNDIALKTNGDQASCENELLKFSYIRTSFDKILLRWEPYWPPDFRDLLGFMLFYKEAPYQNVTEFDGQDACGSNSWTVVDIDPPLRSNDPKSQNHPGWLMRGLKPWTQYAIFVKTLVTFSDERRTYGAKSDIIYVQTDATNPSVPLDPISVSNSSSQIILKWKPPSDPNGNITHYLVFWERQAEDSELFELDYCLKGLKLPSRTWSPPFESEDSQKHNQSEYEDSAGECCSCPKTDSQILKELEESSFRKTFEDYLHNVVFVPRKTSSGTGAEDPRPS
Sequence of Insulin receptor (Homo sapiens) (P06213 763-1382 limits assumed): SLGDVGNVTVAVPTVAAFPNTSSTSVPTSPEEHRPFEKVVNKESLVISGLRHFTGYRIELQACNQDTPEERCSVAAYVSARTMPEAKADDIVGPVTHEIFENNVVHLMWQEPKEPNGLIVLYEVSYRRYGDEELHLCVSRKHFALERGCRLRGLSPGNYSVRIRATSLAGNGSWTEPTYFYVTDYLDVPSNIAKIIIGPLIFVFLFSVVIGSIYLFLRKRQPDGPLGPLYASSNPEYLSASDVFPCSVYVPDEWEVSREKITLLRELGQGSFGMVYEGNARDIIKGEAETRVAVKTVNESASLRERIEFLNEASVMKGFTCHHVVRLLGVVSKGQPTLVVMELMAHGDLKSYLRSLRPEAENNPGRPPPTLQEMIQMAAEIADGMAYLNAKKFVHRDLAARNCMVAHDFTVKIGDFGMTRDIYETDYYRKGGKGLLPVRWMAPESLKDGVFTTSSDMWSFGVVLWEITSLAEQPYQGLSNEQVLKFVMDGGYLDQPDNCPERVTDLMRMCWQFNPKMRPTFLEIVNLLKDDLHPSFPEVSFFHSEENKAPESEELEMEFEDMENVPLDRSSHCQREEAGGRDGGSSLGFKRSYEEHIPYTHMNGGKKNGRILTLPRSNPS
The target in data set [14] is Aurora kinase B (Homo sapiens) (UniProt Q96GD4). As to the kind of experiment: Inhibition of Aurora B at 10 uM by HTRF assay.
In data set [15] the target is Insulin-like growth factor 1 receptor (Homo sapiens) (UniProt P08069). Kind of data set: Inhibition of IGF1R at 10 uM by HTRF assay.
The target in data set [16] is Glycogen synthase kinase-3 beta (Homo sapiens) (UniProt P49841). As to the kind of experiment: Inhibition of GSK3-beta at 10 uM by HTRF assay.
The target in data set [17] is Vascular endothelial growth factor receptor 1 (Homo sapiens, UniProt P17948). Kind of data set: Inhibition of VEGFR1 assessed as blockade of pGAT-biotin phosphorylation in presence of 2 uM ATP by HTRF assay.
Data set [18] deals with Hepatocyte growth factor receptor (Homo sapiens) (UniProt P08581). Kind of data set: Inhibition of cMET at 10 uM by HTRF assay.
Data set [19] can be described thus: Inhibition of Bcr-Abl T315 mutant at 10 uM by HTRF assay.
Data set [20] concerns the target Serine/threonine-protein kinase PLK1 (Homo sapiens) (UniProt P53350). Kind of data set: Inhibition of Plk1 at 10 uM by HTRF assay.
For data set [21], the target named is Cyclin-dependent kinase 1 (Homo sapiens) (UniProt P06493). As to the kind of experiment: Inhibition of CDK1 at 10 uM by HTRF assay.
Sequence of Cyclin-dependent kinase 1 (Homo sapiens) (P06493 whole entry, looked up): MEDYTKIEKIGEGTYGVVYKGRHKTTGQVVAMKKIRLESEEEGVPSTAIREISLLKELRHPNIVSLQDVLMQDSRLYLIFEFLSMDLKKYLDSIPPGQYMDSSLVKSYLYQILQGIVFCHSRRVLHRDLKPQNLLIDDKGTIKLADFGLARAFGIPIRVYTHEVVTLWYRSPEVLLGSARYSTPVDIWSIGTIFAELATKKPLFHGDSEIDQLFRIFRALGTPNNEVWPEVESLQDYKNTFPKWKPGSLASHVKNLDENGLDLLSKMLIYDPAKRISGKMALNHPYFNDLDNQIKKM
Data set [22] concerns the target T1, Vascular endothelial growth factor receptor 2. As to the kind of experiment: Inhibition of VEGFR2 at IC50 concentration by ATP based competition assay.
Data set [23] has as its target Receptor-type tyrosine-protein kinase FLT3 (Homo sapiens) (UniProt P36888). Kind of data set: Inhibition of Flt3 at 10 uM by HTRF assay.
A short description of data set [24]: Intrinsic permeability across human Caco-2 cells. In general terms: Caco-2 monolayers are a common model of the intestinal barrier.

Where only a bound is given, the exact number is not on record here.

Sequence of Receptor tyrosine-protein kinase erbB-2 (Homo sapiens) (P04626 whole entry, the tested form may be a part): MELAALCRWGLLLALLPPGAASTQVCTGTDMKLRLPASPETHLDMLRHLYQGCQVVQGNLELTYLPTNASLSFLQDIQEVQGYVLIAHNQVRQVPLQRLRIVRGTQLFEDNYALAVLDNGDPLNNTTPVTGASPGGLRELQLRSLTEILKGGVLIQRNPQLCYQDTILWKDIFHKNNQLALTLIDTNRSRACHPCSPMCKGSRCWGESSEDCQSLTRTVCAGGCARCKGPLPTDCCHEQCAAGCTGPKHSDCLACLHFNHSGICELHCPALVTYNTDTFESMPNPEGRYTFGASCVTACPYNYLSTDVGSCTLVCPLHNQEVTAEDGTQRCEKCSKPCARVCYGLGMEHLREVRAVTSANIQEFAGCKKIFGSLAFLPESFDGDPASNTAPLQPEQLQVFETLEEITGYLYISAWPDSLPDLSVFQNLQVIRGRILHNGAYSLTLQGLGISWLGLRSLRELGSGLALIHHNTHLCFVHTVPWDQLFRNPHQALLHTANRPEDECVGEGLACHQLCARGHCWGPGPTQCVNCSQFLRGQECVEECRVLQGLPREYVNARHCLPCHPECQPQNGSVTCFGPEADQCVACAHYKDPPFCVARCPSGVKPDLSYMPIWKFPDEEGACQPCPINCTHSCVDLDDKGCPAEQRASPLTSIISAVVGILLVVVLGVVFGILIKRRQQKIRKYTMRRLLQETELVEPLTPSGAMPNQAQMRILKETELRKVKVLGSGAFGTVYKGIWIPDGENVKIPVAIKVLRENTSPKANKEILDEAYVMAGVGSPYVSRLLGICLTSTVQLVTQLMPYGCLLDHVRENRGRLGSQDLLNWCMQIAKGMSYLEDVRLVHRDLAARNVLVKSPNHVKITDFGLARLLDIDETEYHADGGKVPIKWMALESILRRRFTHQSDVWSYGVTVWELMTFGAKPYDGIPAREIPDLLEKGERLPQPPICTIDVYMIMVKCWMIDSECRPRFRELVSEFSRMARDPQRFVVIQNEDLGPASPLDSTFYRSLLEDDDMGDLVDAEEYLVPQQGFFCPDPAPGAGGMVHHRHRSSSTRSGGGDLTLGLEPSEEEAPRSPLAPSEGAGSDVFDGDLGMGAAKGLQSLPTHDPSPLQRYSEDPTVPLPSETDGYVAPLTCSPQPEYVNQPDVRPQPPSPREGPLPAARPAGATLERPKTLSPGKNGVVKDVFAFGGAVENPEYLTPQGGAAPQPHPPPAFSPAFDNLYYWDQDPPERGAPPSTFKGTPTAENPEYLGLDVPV
Sequence of Fibroblast growth factor receptor 1 (Homo sapiens) (P11362 22-822 limits assumed): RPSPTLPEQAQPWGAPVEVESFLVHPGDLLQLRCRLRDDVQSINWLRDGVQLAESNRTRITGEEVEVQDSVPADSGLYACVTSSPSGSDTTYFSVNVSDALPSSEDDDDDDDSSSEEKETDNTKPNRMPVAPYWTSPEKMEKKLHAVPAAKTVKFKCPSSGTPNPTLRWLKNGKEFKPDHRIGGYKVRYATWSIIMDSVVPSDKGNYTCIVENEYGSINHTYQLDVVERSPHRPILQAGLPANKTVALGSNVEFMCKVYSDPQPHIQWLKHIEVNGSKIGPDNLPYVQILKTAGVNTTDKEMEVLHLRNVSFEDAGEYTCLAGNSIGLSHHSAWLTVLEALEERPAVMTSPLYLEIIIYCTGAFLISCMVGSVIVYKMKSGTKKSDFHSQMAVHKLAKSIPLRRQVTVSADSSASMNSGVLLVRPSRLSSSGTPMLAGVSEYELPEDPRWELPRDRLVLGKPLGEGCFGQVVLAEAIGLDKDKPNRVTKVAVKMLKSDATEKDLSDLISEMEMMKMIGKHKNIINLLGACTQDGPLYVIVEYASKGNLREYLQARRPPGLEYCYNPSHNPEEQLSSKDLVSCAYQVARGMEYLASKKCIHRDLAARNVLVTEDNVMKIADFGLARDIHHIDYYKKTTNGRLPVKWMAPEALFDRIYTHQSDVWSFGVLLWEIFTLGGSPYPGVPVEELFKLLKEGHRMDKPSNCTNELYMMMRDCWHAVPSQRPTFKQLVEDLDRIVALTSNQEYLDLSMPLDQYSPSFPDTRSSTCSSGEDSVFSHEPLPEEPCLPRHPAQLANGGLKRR
T1 sequence (P35968 whole entry): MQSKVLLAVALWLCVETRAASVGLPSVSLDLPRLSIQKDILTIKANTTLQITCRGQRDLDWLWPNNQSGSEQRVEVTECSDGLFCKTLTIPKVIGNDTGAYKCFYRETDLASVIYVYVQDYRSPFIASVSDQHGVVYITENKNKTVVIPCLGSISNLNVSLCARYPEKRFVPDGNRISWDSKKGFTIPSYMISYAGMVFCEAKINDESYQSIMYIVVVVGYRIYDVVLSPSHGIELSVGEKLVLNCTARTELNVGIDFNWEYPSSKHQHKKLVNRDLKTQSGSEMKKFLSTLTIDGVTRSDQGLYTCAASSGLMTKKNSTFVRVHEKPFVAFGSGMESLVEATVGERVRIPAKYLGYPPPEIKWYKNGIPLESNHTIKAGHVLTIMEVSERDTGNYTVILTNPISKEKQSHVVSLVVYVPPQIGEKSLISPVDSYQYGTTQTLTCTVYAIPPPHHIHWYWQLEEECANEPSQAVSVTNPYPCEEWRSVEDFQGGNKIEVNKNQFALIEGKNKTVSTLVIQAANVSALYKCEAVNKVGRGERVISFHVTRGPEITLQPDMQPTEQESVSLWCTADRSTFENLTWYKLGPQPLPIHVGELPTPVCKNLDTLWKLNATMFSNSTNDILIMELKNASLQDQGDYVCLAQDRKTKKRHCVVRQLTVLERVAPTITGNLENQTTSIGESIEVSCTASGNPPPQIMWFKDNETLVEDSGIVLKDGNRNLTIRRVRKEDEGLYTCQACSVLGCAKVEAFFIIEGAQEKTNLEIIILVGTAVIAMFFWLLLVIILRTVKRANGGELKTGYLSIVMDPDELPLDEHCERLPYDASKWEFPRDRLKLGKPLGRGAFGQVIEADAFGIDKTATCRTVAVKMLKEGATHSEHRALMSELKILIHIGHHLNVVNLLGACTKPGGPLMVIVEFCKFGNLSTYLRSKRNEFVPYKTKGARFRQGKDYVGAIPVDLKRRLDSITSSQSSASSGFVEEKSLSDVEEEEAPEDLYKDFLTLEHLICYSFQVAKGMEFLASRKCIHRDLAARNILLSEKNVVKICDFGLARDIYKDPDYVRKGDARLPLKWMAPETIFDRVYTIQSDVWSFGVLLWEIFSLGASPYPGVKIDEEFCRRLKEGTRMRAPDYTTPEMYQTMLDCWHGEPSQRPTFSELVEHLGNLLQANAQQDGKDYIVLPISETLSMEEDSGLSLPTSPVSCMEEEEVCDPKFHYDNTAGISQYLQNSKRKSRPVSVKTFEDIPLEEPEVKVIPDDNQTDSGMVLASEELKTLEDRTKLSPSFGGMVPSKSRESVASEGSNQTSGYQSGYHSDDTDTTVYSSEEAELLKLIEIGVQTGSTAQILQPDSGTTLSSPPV

Consider `O=C(Nc1ccc(Br)cc1)c1nscc1NCc1ccncc1`, for which the values for the inhibition constant (Ki) in data set [1] and in data set [22] were 0.07 µM and 0.09 µM, respectively. In addition, the inhibition in [2], in data set [3], in [4], in data set [5], in data set [8] and in [9] was below 30% throughout. Besides, the inhibition in data set [10], in data set [11], in data set [12], in [13], in [14] and in data set [15] was below 30% throughout. Also, the inhibition in data set [16], in data set [18], in data set [19], in data set [20], in [21] and in data set [23] was below 30% in each case. The results for the IC50 in data set [6], in data set [7] and in data set [17] were 0.23 µM, 1.04 µM and 0.26 µM, respectively.

As to `Cc1ccc(NC(=O)c2nscc2NCc2ccncc2)cc1C(F)(F)F`, in data set [24], the apparent permeability (Papp) – broadly, a coefficient for how fast a substance crosses the barrier – was 5.9 ×10⁻⁶ cm/s. Further, the inhibition in [2], in data set [3], in data set [4], in [5], in data set [8] and in data set [9] was below 30% throughout. In addition, the inhibition in data set [10], in data set [11], in [12], in data set [13], in data set [14] and in [15] was below 30% each time. Moreover, the inhibition in data set [16], in [18], in [19], in data set [20], in data set [21] and in data set [23] was below 30% throughout. The 50% inhibitory concentration (IC50) – broadly, the concentration that gives 50% inhibition – was 0.043 µM in data set [6], 0.056 µM in data set [7] and 0.19 µM in data set [17].

On to `CC(C)(C)c1cccc(NC(=O)c2nscc2NCc2ccncc2)c1`, for which the Papp in data set [24] is 5.58 ×10⁻⁶ cm/s. In addition, the inhibition in data set [2], in data set [3], in data set [4], in [5], in [8] and in data set [9] was below 30% in each case. In addition, the inhibition in data set [10], in [11], in data set [13], in data set [15], in [16] and in [18] was below 30% throughout. For the same compound, the inhibition in data set [19], in [21] and in data set [23] was below 30% throughout.

Take `O=C(Nc1cccc(C(F)(F)F)c1)c1nscc1NCc1ccnc2ccccc12`: the Papp in data set [24] was 2.72 ×10⁻⁶ cm/s. In addition, the inhibition in data set [2], in data set [3], in data set [4], in data set [5], in [8] and in data set [9] was below 30% each time. The inhibition in [10], in data set [11], in [13], in data set [15], in data set [16] and in data set [18] was below 30% each time. Moreover, the inhibition in data set [19], in data set [21] and in data set [23] was below 30% in each case.

On to `O=C(Nc1cccc(OC(F)(F)F)c1)c1nscc1NCc1ccncc1`, for which the apparent permeability (Papp) in [24] was 7.93 ×10⁻⁶ cm/s. The inhibition in data set [2], in data set [3], in [4], in data set [5], in [8] and in [9] was below 30% throughout. The inhibition in data set [10], in data set [11], in data set [12], in [13], in data set [14] and in data set [15] was below 30% in each case. In addition, the inhibition in [16], in data set [18], in data set [19], in [20], in data set [21] and in data set [23] was below 30% throughout. Besides, the IC50 in data set [6] came out at 0.033 µM; in data set [7], 0.041 µM; in [17], 0.26 µM.

On to `O=C(Nc1ccc(C(F)(F)F)c(Cl)c1)c1nscc1NCc1ccncc1`, for which the inhibition in data set [2], in data set [3], in data set [4], in [5], in [8] and in data set [9] was below 30% in each case. For the same compound, the inhibition in data set [10], in data set [11], in data set [12], in data set [13], in data set [14] and in [15] was below 30% each time. The inhibition in data set [16], in data set [18], in [19], in data set [20], in data set [21] and in data set [23] was below 30% in each case. Besides, the IC50 in data set [6] was 0.89 µM; in data set [7], 2.05 µM; in [17], 1.8 µM.

With `O=C(Nc1cccc(Br)c1)c1nscc1NCc1ccnc2ccccc12`, the apparent permeability coefficient (Papp) in [24] was 3.58 ×10⁻⁶ cm/s. For the same compound, the inhibition in data set [2], in [3], in data set [4], in data set [5], in data set [8] and in [9] was below 30% each time. Further, the inhibition in data set [10], in [11], in data set [13], in data set [15], in data set [16] and in data set [18] was below 30% throughout. For the same compound, the inhibition in [19], in data set [21] and in data set [23] was below 30% in each case.

Consider `O=C(Nc1ccc2ccccc2n1)c1nscc1NCc1ccncc1`, for which the inhibition in data set [2], in [3], in data set [4], in [5], in data set [8] and in data set [9] was below 30% throughout. In addition, the inhibition in [10], in data set [11], in data set [12], in data set [13], in data set [14] and in data set [15] was below 30% throughout. Also, the inhibition in data set [16], in data set [18], in data set [19], in data set [20], in data set [21] and in data set [23] was below 30% in each case. Further, the values for the IC50 in data set [6], in data set [7] and in [17] were 0.44 µM, 0.77 µM and 0.38 µM, respectively.
